# Entries after “also recorded” stand apart in the source; their conditions may differ. Read-outs that look alike come from different tables or passages of the source.
# What was measured:
# [1] = test system: native GABAA receptors in rat cerebellar membranes; assay type: binding
# Procedure: (§1) The protein concentrations of brain membranes were determined with the Bio-Rad Coomassie blue dye-based protein assay kit (Hercules, CA, United States) as per the manufacturer’s protocol. Transfected HEK293 cells were harvested 48 h after transfection using a detaching buffer (10 mM Tris-HCl, 0.15 M NaCl, 2 mM EDTA) and centrifuged at 20,000 g for 10 min at +4 °C. The resulting pellets were suspended in the assay buffer for binding assays.
# (§2) In humulone concentration series with recombinant α6β3, α6β3γ2S, and α6β3δ receptors, HEK293 cell membranes were incubated in the same above conditions for 120 min with [^3H]EBOB (1 nM) and different concentrations of humulone (30 nM–30 μM) in the presence or absence of ethanol (30 mM). […] Picrotoxin (100 μM) was used to determine the non-specific binding in all assays.
# (§3) Membrane samples were filtered through Whatman GF/B glass fiber filters (Whatman International Ltd., Maidstone, United Kingdom) using a Brandel Cell Harvester (model M-24, Gaithersburg, MD, United States). The filters were rinsed three times with 5 mL of ice-cold 10 mM Tris-HCl, pH 7.4 buffer. Air-dried filters were immersed in 3 mL of Hidex AquaLight Beta scintillation liquid and radioactivity was determined in Hidex 600 SL liquid scintillation counter (Hidex, Turku, Finland).
# [2] = target: T1, recombinant α6β3δ GABAA receptors (Rattus norvegicus, UniProt P18506+P30191+P63079); assay: [3H]EBOB binding assay, recombinant α6β3δ receptors in HEK293 cell membranes; conditions: GABA 3 μM
# T1 construct: expressed in transfected cells; host or cells: HEK293 cells, transient CaPO4 transfection, pRK5 plasmids; cell membranes used
# Procedure: (§4) The cells were divided and plated on 150 mm culture dishes for binding assays and 12 mm coverslips in 24-well cell culture plates for electrophysiology 24 h before transfection.
# (§5) The cells were transiently transfected with rat cDNAs encoding GABAA receptor subunits (α1, L08490; α6, L08495; β3, X15468; γ2S, L08497; δ, L08496) in pRK5 plasmids under the control of CMV promoter ([Uusi-Oukari et al., 2000]). The plasmids were used in 1:1 and 1:1:1 ratio for transfections containing α1β3γ2S, α6β3, α6β3γ2S, and α6β3δ receptor subtypes. […] (Supplementary Figure S1). For electrophysiology, K4® transfection system (Biontex, München, Germany) was used according to the manufacturer’s protocol to increase expression efficiency and cell viability. […] The medium was changed 24 h after transfection and all experiments were performed 48 h after transfection.
# as §1, §2, §3
# [3] = target: T2, recombinant α6β3γ2 GABAA receptors (Rattus norvegicus, UniProt P18508+P30191+P63079); assay: [3H]EBOB binding assay, recombinant α6β3γ2 receptors in HEK293 cell membranes; conditions: GABA 3 μM
# T2 construct: expressed in transfected cells; host or cells: HEK293 cells, transient CaPO4 transfection, pRK5 plasmids; cell membranes used
# Procedure: as §4, §5, §1, §2, §3
# [4] = target: T3, recombinant α6β3 GABAA receptors (Rattus norvegicus, UniProt P30191+P63079); assay: [3H]EBOB binding assay, recombinant α6β3 receptors in HEK293 cell membranes; conditions: GABA 3 μM
# T3 construct: expressed in transfected cells; host or cells: HEK293 cells, transient CaPO4 transfection, pRK5 plasmids (1:1); cell membranes used
# Procedure: as §4, §5, §1, §2, §3
# [5] = test system: GABAA receptors; set-up: method as in Benkherouf et al., 2020; conditions: ref Benkherouf et al., 2020; cited from earlier work
# [6] = test system: native GABAA receptors in rat forebrain membranes; assay: [3H]EBOB binding assay, rat forebrain membranes; conditions: each compound 1 μM, GABA 3 μM, n = 3
# Procedure: as §1, §2, §3
# [7] = test system: native GABAA receptors in rat forebrain membranes; set-up: method as in Benkherouf et al., 2020; conditions: ref Benkherouf et al., 2020, cited from earlier work
# [8] = test system: native αβγ2 GABAA receptors, classical benzodiazepine binding site; set-up: method as in Benkherouf et al., 2019, 2020; conditions: ref Benkherouf et al., 2019, 2020, cited from earlier work
# [9] = target: T4, recombinant α1β3γ2 GABAA receptors (Rattus norvegicus, UniProt P18508+P62813+P63079); assay: Whole-cell patch-clamp of GABA-induced currents in transfected HEK293 cells; assay type: cell-based; conditions: humulone 10 μM, GABA 1 μM, 1 min application, −60 mV, n = 8 cells
# T4 construct: expressed in transfected cells; host or cells: HEK293 cells, transient transfection (K4 transfection system), pRK5 plasmids; EGFP co-transfected from a separate pWPI plasmid
# Procedure: Human embryonic kidney (HEK) 293 cells (Sigma- Aldrich, St Louis, MO, United States) were maintained in Dulbecco’s modified Eagle’s medium supplemented with 10% fetal bovine serum (Gibco, Gaithersburg, MD; United States), 50 U/mL penicillin and 50 μg/mL streptomycin (Sigma-Aldrich, St Louis, MO, United States) under standard growth conditions at 37°C, 95% humidity and 5% CO2. The cells were divided and plated on 150 mm culture dishes for binding assays and 12 mm coverslips in 24-well cell culture plates for electrophysiology 24 h before transfection.
# The cells were transiently transfected with rat cDNAs encoding GABAA receptor subunits (α1, L08490; α6, L08495; β3, X15468; γ2S, L08497; δ, L08496) in pRK5 plasmids under the control of CMV promoter ([Uusi-Oukari et al., 2000]). The plasmids were used in 1:1 and 1:1:1 ratio for transfections containing α1β3γ2S, α6β3, α6β3γ2S, and α6β3δ receptor subtypes. For radioligand binding, CaPO4 precipitation method was used essentially as described earlier ([Lüddens and Korpi, 1997]). […]
# The cells were continuously perfused with external HEK-Krebs solution containing (in mM): 140 NaCl, 4.7 KCl, 1.2 MgCl2, 2.52 CaCl2, 11 glucose, and 5 HEPES, pH 7.4 adjusted with […]. […] The external solution and drug solutions were driven by gravity at the flow rate of 5 mL/min and the current responses were recorded at room temperature (20–22°C).
# [10] = test system: BALB/cAnNRj mice; assay: Open field test (spontaneous locomotor activity); assay type: in vivo
# Procedure: Each mouse was then placed individually into the center of a brightly illuminated white Plexiglass arena (50 × 50 × 38 cm) and recorded continuously for 15 min with Ethovision version 13 tracking system (Noldus, Wageningen, The Netherlands). The parameters of locomotor activity such as distance and velocity were quantified and analyzed for the whole and subsections of the arena. All arena surfaces were thoroughly cleaned with 70% ethanol and dried between each tested subject.
# [11] = set-up: method as in Fritsch and Shellhammer, 2007; conditions: ref Fritsch and Shellhammer, 2007; cited from earlier work
# [12] = test system: mice; set-up: method as in Schiller et al., 2006; conditions: ref Schiller et al., 2006, cited from earlier work
# [13] = test system: rats; conditions: ref Bejeuhr, 1993, cited from earlier work
# [14] = test system: BALB/cAnNRj mice; assay: Ethanol-induced sleep test; conditions: ethanol 3.5 g/kg i.p.; for duration of sleep induced by ethanol: vs control
# [15] = test system: BALB/cAnNRj mice; assay: Pentobarbital-induced sleep test
# Procedure: As an index of drug-induced CNS inhibition, sleep latency (time between pentobarbital administration and loss of righting reflex) and duration of sleep (time between loss and recovery of righting reflex) were measured with a chronometer for each mouse. The recovery of the righting reflex was confirmed by the ability of the mice to re-right 3 times within 1 min. The drugs were freshly prepared before use, and the total injection volume (13 mL/kg) was retained constant.
# [16] = ethanol 30 mM co-incubated with humulone 1 μM
# [17] = humulone 10 mg/kg i.p. vs control
# [18] = humulone 20 mg/kg i.p., 45 min after administration, 15 min observation, vs vehicle, p < 0.01
# [19] = humulone 10 mg/kg i.p., pentobarbital sodium 35 mg/kg i.p.
# T3 sequence (P30191 20-453): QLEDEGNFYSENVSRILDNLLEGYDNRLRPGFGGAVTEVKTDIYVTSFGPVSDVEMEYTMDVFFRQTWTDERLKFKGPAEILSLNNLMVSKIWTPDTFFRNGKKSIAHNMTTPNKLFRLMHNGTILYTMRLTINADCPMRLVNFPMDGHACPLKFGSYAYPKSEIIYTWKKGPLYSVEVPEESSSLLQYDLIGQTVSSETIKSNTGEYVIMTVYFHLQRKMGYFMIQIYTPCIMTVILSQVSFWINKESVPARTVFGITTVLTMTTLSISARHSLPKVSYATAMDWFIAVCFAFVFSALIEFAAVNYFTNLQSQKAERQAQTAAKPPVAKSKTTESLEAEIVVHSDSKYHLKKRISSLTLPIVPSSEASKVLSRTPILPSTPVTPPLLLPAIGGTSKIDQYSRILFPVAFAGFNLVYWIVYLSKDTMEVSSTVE
# T3 sequence (P63079 26-473): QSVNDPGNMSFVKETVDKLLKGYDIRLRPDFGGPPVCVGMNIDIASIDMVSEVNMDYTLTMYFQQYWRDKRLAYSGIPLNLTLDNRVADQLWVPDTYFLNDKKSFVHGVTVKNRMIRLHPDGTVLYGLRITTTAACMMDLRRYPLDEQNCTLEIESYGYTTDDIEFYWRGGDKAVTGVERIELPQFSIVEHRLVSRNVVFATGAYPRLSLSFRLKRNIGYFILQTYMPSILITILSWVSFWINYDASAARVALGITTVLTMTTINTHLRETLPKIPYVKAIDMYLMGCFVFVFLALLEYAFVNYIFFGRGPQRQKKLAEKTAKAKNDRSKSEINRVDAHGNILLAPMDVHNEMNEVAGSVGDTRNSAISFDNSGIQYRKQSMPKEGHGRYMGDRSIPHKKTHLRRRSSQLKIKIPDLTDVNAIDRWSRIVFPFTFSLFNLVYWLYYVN
# T2 sequence (P30191 20-453): as the sequence (P30191 20-453) above
# T2 sequence (P63079 26-473): as the sequence (P63079 26-473) above
# T2 sequence (P18508 39-466): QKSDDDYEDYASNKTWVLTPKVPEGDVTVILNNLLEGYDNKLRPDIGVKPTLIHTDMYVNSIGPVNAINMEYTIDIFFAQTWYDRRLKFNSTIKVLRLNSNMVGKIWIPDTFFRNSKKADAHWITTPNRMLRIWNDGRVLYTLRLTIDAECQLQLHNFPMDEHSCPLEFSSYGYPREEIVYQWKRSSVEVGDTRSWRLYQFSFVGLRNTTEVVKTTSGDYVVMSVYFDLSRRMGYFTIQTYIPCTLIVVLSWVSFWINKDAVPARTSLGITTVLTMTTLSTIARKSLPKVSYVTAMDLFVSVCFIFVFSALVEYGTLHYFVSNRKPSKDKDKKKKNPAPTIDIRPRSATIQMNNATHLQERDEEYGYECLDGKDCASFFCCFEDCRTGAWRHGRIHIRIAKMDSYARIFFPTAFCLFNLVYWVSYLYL
# T1 sequence (P30191 20-453): as the sequence (P30191 20-453) above
# T1 sequence (P63079 26-473): as the sequence (P63079 26-473) above
# T1 sequence (P18506 25-449): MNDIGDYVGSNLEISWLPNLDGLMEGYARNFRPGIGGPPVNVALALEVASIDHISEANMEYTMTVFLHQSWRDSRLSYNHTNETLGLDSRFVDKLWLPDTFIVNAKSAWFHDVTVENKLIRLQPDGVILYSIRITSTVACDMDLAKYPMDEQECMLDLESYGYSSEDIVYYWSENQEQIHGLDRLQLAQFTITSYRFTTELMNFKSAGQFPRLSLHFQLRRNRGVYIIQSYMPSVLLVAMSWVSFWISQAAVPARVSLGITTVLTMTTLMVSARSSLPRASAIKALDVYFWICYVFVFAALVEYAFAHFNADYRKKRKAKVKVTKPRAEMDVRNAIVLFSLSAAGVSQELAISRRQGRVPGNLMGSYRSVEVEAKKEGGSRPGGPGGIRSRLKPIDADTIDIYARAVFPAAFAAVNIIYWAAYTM
# T4 sequence (P62813 28-455): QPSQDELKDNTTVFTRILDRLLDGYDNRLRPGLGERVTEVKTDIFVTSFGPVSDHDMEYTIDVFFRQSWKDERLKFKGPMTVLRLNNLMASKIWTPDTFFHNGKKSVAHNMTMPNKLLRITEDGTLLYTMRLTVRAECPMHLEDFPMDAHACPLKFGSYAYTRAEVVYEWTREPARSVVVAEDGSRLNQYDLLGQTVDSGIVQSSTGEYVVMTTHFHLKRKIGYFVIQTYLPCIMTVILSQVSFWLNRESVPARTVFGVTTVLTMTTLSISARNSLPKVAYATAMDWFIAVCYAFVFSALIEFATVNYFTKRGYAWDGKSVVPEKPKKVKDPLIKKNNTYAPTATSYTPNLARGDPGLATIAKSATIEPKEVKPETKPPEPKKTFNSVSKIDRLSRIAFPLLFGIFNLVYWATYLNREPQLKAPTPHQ
# T4 sequence (P63079 26-473): as the sequence (P63079 26-473) above
# T4 sequence (P18508 39-466): as the sequence (P18508 39-466) above
smiles,measurement,setting,value
CCO [ethanol],effect of ethanol solely on [3H]EBOB binding,[1],neither displaces nor modulates
same,ethanol enhancement of humulone-mediated [3H]EBOB displacement,"[2]; ethanol 30 mM co-incubated with humulone 1 μM, α6β3δ",did not significantly enhance
same,effect of ethanol alone on GABA-induced [3H]EBOB displacement,"[2]; ethanol 30 mM, α6β3δ",no effect; also recorded: unaffected
same,ethanol enhancement of humulone-mediated [3H]EBOB displacement,[3]; [16],did not alter; also recorded: did not enhance
same,effect of ethanol alone on GABA-induced [3H]EBOB binding,[3]; ethanol 30 mM,unaffected
same,ethanol enhancement of humulone-mediated [3H]EBOB displacement,[4]; [16],did not alter; also recorded: did not enhance
same,effect of ethanol alone on GABA-induced [3H]EBOB binding,[4]; ethanol 30 mM,unaffected
CCC(C)C(=O)C1=C(O)C(CC=C(C)C)=C(O)C(O)(CC=C(C)C)C1=O (stereo not drawn) [adhumulone],modulatory effects on GABAA receptors,[5],weak modulatory effects
"CC(C)=CCc1c(O)cc2c(c1O)C(=O)C[C@@H](c1ccc(O)cc1)O2 [6PN, 6-prenylnaringenin]",[3H]EBOB displacement normalized to the maximum radioligand binding in the presence of 3 μM GABA alone,[6],14.2 ± 1.4%
same,sensitivity of modulatory effect on [3H]EBOB binding to flumazenil antagonism,[7],insensitivity
same,displacement of [3H]Ro 15-4513 binding (benzodiazepine binding site),[8],remarkably more efficient
CC(C)=CCC1=C(O)[C@@](O)(CC=C(C)C)C(=O)C(C(=O)CC(C)C)=C1O [humulone],"potentiation of GABA-induced peak current amplitude, normalized to 1 μM GABA alone",[9],158 ± 41%
same,[3H]EBOB displacement normalized to the maximum radioligand binding in the presence of 3 μM GABA alone,[6],13.5 ± 1.5%
same,"extent of humulone non-competitive synergy with ethanol, cerebellum compared to forebrain","[1]; humulone 1 μM + ethanol 30 mM, from Table 1",11.2%
same,concentration at which potentiation of GABA-induced [3H]EBOB displacement was evident,[2]; α6β3δ,≥ 1 µM
same,increase in potency in α6β3δ compared to α6β3 receptors,[2]; ratio of IC50 values,6.7 fold
same,increase in potency in α6β3δ compared to α6β3γ2 receptors,[2]; ratio of IC50 values,5.8 fold
same,concentration at which potentiation of GABA-induced [3H]EBOB displacement was observed,[3],≥ 10 µM
same,effect on [3H]EBOB displacement induced by GABA,[3]; humulone 1 μM,absent
same,concentration at which potentiation of GABA-induced [3H]EBOB displacement was observed,[4],≥ 10 µM
same,effect on [3H]EBOB displacement induced by GABA,[4]; humulone 1 μM,absent
same,significant difference in average velocity in open field,[10]; [17],not observed
same,significant difference in total distance traveled in open field,[10]; [17],not observed
same,average velocity in open field,[10]; [18],lower
same,total distance traveled in open field,[10]; [18],shorter
same,time spent in periphery and center in open field,"[10]; humulone 10 and 20 mg/kg i.p. vs vehicle, Supplementary Figure S3",no differences
same,IC50,"[7]; rat forebrain membranes, read-out: IC50, modulation of [3H]EBOB binding",3.2 ± 0.4 µM
same,sensitivity of modulatory effect on [3H]EBOB binding to flumazenil antagonism,[7],insensitive
same,sensitivity of modulatory effect on [3H]EBOB binding to flumazenil antagonism,[7]; listed as humulone fraction,insensitivity
same,solubility in beer,[11],14 µg/mL
same,displacement of [3H]Ro 15-4513 binding (benzodiazepine binding site),[8],very weak displacement
same,displacement of [3H]Ro 15-4513 binding (benzodiazepine binding site),[8]; listed as humulone fraction,low potency
same,duration of sleep induced by ketamine,[12]; humulone component in alpha acid extract at 21 mg/kg,increase
same,"duration of sleep induced by ketamine, additional effect at higher dose",[12]; humulone component in alpha acid extract at 42 mg/kg,no additional effect
same,LD50,[13]; i.m. (rats),600 mg/kg/b.w.
same,LD50,"[13]; p.o., rodents","1,500 mg/kg/b.w."
same,duration of sleep induced by ethanol,"[14]; humulone 10 mg/kg i.p., p < 0.05",significantly increased
same,duration of sleep induced by ethanol,"[14]; humulone 20 mg/kg i.p., p < 0.001",significantly increased
same,onset of sleep induced by ethanol,[14]; humulone 10 or 20 mg/kg i.p.,no effect
same,duration of sleep induced by pentobarbital,[15]; [19],not observed
same,sleep latency induced by pentobarbital,[15]; [19],not observed
same,duration of sleep induced by pentobarbital,"[15]; humulone 20 mg/kg i.p., 45 min before pentobarbital sodium 35 mg/kg i.p., vs control, p < 0.001",prolonged
same,sleep latency induced by pentobarbital,"[15]; humulone 20 mg/kg i.p., 45 min before pentobarbital sodium 35 mg/kg i.p., vs control, p < 0.01",significantly decreased
CC(C)=CCC1=C(O)C(O)(CC=C(C)C)C(=O)C(C(=O)C(C)C)=C1O (stereo not drawn) [cohumulone],modulatory effects on GABAA receptors,[5],weak modulatory effects
"COc1cc(O)c(CC=C(C)C)c2c1C(=O)CC(c1ccc(O)cc1)O2 (stereo not drawn) [IXN, isoxanthohumol]",[3H]EBOB displacement normalized to the maximum radioligand binding in the presence of 3 μM GABA alone,[6],14.4 ± 0.9%

# — publication PMC7591795, “Humulone Modulation of GABAA Receptors and Its Role in Hops Sleep-Promoting Activity” (Frontiers in Neuroscience, 2020)
